Data as given in article PMC6175941, “Hydrophobic alkyl chains substituted to the 8-position of cyclic nucleotides enhance activation of CNG and HCN channels by an intricate enthalpy - entropy compensation” (Scientific Reports, 2018).

Legend:
[1] = test system: CNGA2:CNGA4:CNGB1b channels; design: method as in PMID 17665892; details: cited from earlier work
CNGA2 channels = biological target: T1, CNGA2 channels (Rattus norvegicus, UniProt Q00195); test: Activation and deactivation kinetics by concentration jumps, CNGA2 channels; assay type: cell-based
T1 construct: expressed in transfected cells; host or cells: Xenopus laevis oocytes injected with cRNA; inside-out patches
T1 sequence (Q00195 1-664): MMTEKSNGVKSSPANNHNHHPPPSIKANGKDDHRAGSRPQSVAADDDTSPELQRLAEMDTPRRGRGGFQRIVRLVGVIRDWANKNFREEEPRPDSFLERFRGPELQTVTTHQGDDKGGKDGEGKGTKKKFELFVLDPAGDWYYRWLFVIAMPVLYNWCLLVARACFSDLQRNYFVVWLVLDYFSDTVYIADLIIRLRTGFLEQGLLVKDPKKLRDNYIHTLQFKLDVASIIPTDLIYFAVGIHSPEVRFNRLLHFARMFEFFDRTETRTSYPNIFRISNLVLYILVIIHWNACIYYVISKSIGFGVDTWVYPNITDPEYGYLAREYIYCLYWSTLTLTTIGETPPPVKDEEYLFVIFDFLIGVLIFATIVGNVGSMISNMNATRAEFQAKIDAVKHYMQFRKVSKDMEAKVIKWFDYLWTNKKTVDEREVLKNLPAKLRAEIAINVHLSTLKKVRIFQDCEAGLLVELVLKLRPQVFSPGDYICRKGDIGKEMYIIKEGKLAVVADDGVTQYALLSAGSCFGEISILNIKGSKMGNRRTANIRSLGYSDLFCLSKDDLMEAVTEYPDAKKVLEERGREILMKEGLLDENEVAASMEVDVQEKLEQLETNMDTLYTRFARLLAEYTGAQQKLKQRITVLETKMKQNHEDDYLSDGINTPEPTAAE
Text: (§1) We applied concentration jumps from zero to a defined level and back to zero, yielding the time constants τa and τd, respectively (c.f. Methods section). If the enhancement of the apparent affinity is caused by solely accelerating the binding rate, τa would be decreased and τd would be unaffected. Conversely, if the hydrophobic alkyl chain enhances the apparent affinity by solely decelerating the unbinding rate, τd would be increased and τa could be increased preferentially at lower concentrations.
(§2) In experiments designed to record activation and deactivation kinetics in CNG channels, theta-glass pipettes were used in which one barrel contained control solution and the other barrel the test solution supplemented with the ligand. The theta-glass pipette was mounted on a piezo actuator which was controlled by the computer controlling the voltage protocols. The effective switch time of the solution exchange, t10–90, determined by an open patch pipette and different solutions in the barrels, was negligible compared to the time courses of activation and deactivation to be considered. […]
(§3) The speed of activation and deactivation was determined by fitting the respective time courses with single exponentials yielding the time constant τ. […] To quantify the time course at a given cNMP concentration for a number of measurements τwm and τ were treated equally. […]

[2] = biological target: T2, heterotetrameric CNGA2:CNGA4:CNGB1b channels (Rattus norvegicus, UniProt A0A8I5ZN27+Q00195+Q64359); test: Concentration-activation relationship of heterotetrameric CNGA2:CNGA4:CNGB1b channels, inside-out patches of Xenopus oocytes; assay type: cell-based; details: heterotetrameric CNGA2:CNGA4:CNGB1b channels, mean; for EC50: late current at +10 mV
T2 construct: expressed in transfected cells; host or cells: Xenopus laevis oocytes co-injected with cRNAs (2:1:1); inside-out patches
T2 sequence (Q64359 whole entry, one chain of several): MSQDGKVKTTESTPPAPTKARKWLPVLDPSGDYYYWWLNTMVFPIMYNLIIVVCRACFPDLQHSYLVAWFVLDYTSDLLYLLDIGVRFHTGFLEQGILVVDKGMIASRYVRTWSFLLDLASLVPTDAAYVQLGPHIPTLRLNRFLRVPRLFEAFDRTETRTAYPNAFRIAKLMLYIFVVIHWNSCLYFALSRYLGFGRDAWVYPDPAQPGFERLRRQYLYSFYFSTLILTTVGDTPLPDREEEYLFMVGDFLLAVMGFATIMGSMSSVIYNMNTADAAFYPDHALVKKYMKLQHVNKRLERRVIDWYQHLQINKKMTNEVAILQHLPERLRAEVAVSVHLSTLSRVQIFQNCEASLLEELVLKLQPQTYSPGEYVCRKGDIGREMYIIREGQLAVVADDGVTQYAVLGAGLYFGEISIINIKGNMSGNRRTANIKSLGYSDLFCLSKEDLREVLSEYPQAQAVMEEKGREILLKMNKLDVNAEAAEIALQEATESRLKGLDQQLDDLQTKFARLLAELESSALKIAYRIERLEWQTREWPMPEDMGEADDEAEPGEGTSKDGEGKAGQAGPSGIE
T2 sequence (A0A8I5ZN27 1-858 isoform A0A8I5ZN27-2, one chain of several): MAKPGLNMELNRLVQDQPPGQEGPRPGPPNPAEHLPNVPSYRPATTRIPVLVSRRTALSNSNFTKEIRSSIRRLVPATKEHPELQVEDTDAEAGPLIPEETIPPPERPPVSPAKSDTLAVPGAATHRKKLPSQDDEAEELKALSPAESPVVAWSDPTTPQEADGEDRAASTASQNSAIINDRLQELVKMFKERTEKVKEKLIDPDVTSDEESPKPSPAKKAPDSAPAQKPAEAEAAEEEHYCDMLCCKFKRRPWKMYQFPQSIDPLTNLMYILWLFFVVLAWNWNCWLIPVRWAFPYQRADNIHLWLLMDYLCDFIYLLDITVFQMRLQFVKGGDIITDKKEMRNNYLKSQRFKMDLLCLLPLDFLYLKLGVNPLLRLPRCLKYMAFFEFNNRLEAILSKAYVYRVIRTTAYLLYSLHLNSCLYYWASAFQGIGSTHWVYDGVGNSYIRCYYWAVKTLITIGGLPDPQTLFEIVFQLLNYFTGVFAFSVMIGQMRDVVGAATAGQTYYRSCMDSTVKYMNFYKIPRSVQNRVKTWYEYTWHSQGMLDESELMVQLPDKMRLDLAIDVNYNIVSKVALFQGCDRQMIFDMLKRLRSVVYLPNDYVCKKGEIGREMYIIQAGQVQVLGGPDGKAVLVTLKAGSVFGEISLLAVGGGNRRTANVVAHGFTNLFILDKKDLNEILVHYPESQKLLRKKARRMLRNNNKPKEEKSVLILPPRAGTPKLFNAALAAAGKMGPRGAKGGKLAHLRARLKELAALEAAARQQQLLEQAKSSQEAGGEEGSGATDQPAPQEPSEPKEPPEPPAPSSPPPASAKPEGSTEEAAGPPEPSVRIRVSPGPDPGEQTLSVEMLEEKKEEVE
Procedure: (§4) For each cNMP derivative a complete concentration-activation relationship was recorded, and the data points were fitted with the Hill equation (equation 1) yielding the concentration of half maximum activation (EC50) and the Hill coefficient H (Fig. 1b,c).
(§5) The subunits CNGA2 (accession No. AF126808), CNGA4 (accession No. U12623) and CNGB1b (accession No. AF068572) of rat olfactory channels as well as mouse HCN2 channels (NM008226) were subcloned in front of the T7 promoter of pGEMHEnew. The respective cRNAs were produced by using the mMESSAGE mMACHINE T7 Kit (Ambion, Austin, TX).
(§6) Oocytes at stages IV and V were injected with 50–130 ng of cRNA encoding either CNGA2, CNGA2:CNGA4:CNGB1b (2:1:1 ratio) or HCN2 channels either manually of or by means of an injection robot (RoboInject®). The injected oocytes were incubated at 18 °C for up to 6 days in Barth’s solution containing (in mM) 84 NaCl, 1 KCl, 2.4 NaHCO3, 0.82 MgSO4, 0.41 CaCl2, 0.33 Ca(NO3)2, 7.5 TRIS, cefuroxime (4.0 µg × ml^−1), and penicillin/streptomycin (100 µg × ml^−1), pH 7.4.
(§7) Macroscopic currents were recorded from inside-out patches of the oocytes by using standard patch-clamp techniques. The patch pipettes were pulled from quartz tubing (P-2000, Sutter Instrument, Novato, USA) with an outer and inner diameter of 1.0 and 0.7 mm (VITROCOM, New Jersey, USA). The corresponding pipette resistance was 0.9–2.3 MΩ. The bath and pipette solution contained (in mM): 150 KCl, 1 EGTA, 5 Hepes (pH 7.4 with KOH) for CNG measurements. For HCN measurements the bath solution contained 100 mM KCl, 10 mM EGTA, 10 mM HEPES (pH 7.2) and 120 mM KCl, 10 mM HEPES, and 1.0 mM CaCl2 (pH 7.2) in the pipette. Recording was carried out at room temperature using an Axopatch 200B amplifier (Axon Instruments, Foster City, CA). Electrophysiology was controlled by the Patchmaster-software (HEKA Elektronik Dr. Schulze GmbH, Lambrecht, Germany). The sampling rate was 5 kHz and the filter implemented in the amplifier (4-pole Bessel) was set to 2 kHz. Measurements in HCN2 channels were generally started 3.5 min after patch excision to minimize channel run down during the measurement[14],[27],[70]. The solutions with the ligand concentrations to be tested were applied via a multi-barrel device to the patches with a flow rate of 0.8 to 1.2 ml/min.
(§8) I is the actual current amplitude and Imax the maximum current amplitude at a saturating cNMP concentration specified for each cNMP and channel. EC50 is the cNMP concentration generating the half maximum current and H the Hill coefficient.

[3] = biological target: T3, CNGA2:CNGA4:CNGB1b channels (Rattus norvegicus, UniProt A0A8I5ZN27+Q00195+Q64359); test: Activation and deactivation kinetics by concentration jumps, CNGA2:CNGA4:CNGB1b channels; assay type: cell-based
T3 construct: expressed in transfected cells; host or cells: Xenopus laevis oocytes co-injected with cRNAs (2:1:1); inside-out patches
T3 sequence (Q64359 whole entry, one chain of several): as the sequence (Q64359 whole entry, one chain of several) above
T3 sequence (A0A8I5ZN27 1-858 isoform A0A8I5ZN27-2, one chain of several): as the sequence (A0A8I5ZN27 1-858 isoform A0A8I5ZN27-2, one chain of several) above
Text: as §1, §2, §3

[4] = biological target: T4, homotetrameric CNGA2 channels (Rattus norvegicus, UniProt Q00195); test: Concentration-activation relationship of homotetrameric CNGA2 channels, inside-out patches of Xenopus oocytes; assay type: cell-based
T4 construct: expressed in transfected cells; host or cells: Xenopus laevis oocytes injected with cRNA; inside-out patches
T4 sequence (Q00195 1-664): T1 sequence (Q00195 1-664)
Procedure: as §4, §5, §6, §7, §8

[5] = biological target: T5, homotetrameric HCN2 channels (Mus musculus, UniProt O88703); test: Concentration-activation relationship of homotetrameric HCN2 channels, inside-out patches of Xenopus oocytes; assay type: cell-based; details: homotetrameric HCN2 channels, mean; for EC50: pre-activation at -130 mV, instantaneous current at -100 mV
T5 construct: expressed in transfected cells; host or cells: Xenopus laevis oocytes injected with cRNA; inside-out patches
T5 sequence (O88703 1-863): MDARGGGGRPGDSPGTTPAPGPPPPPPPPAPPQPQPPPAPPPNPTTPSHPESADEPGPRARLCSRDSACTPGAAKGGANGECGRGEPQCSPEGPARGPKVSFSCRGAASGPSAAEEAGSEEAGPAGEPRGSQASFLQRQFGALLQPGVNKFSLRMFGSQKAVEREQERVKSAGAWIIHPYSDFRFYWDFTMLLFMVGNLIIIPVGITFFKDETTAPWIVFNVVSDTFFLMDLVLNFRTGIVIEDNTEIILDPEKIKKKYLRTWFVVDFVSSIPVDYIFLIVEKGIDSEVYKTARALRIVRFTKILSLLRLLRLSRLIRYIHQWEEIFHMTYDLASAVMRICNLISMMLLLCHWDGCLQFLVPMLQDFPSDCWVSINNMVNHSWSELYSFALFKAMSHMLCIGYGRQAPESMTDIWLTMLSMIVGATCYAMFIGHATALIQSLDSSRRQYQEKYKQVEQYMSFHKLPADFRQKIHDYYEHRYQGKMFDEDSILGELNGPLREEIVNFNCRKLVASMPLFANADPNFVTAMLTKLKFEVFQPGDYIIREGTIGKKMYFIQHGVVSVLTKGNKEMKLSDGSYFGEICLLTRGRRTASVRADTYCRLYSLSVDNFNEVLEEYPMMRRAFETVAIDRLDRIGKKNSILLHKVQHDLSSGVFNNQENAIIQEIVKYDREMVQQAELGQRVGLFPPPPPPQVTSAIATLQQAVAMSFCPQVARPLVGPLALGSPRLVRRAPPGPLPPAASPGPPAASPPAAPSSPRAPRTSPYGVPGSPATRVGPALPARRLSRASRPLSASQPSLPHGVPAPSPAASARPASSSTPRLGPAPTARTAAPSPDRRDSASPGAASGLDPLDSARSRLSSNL
Procedure: as §5
as §6, with “The oocytes were exposed to collagenase A (3 mg/ml; Roche, Grenzach-Wyhlen, Germany) for 105 min in Ca^2+-free Barth’s solution containing (in mM) 82.5 NaCl, 2 KCl, 1 MgCl2 2, and 5 Hepes, pH 7.4. Oocytes” for “Oocytes”
as §7, §8

[6] = homotetrameric CNGA2 channels, late current at +10 mV, mean
[7] = homotetrameric CNGA2 channels, mean

| activation time constant τa compared to cGMP (1G) (CNGA2 channels; at concentrations lower than 1 µM) | EC50 [2] [nM] | H (Hill coefficient) [2] | deactivation compared to the effect with CNGA2 channels ([3]; 10 µM) | activation time constant τa ([3]; low concentrations) | EC50 [4, 6] [nM] | H (Hill coefficient) [4, 7] | H (Hill coefficient) [5] | EC50 [5] [nM] | EC50 ([4]; CNGA2 channels, numeric mean values of box plots (Fig. 2a,b, Fig. 3) and text) [nM] | Compound | EC50 [1] [nM] | deactivation time constant τd compared to cGMP (1G) (CNGA2 channels; all tested concentrations) |
| --- | --- | --- | --- | --- | --- | --- | --- | --- | --- | --- | --- | --- |
| – | – | – | – | – | – | – | – | – | – | Nc1nc2c(nc(Sc3ccc(Cl)cc3)n2C2O[C@@H]3COP(=O)(O)O[C@H]3[C@H]2O)c(=O)[nH]1 (stereo in doubt) [8-pCPT-cGMP] | 73 | – |
| larger | 230 | 2.0 | slowed to a much lower degree | not affected | 80 | 2.7 | – | – | – | CC(=O)NCCCCCCSc1nc2c(=O)[nH]c(N)nc2n1C1OC2COP(=O)(O)OC2C1O (stereo not shown) [5G, 8-(Ac)AHT-cGMP] | – | approximately an order of magnitude increased |
| – | 470 | 2.7 | – | – | 2300 | 2.4 | 1.5 | 14.6 | – | CC(=O)NCCCCCCCCCCSc1nc2c(N)ncnc2n1C1OC2COP(=O)(O)OC2C1O (stereo not shown) [7A, 8-(Ac)ADT-cAMP] | – | – |
| – | 6000 | 2.2 | – | – | 24900 | 2.4 | 0.9 | 144 | – | CC(=O)NCCOCCOCCSc1nc2c(N)ncnc2n1C1OC2COP(=O)(O)OC2C1O (stereo not shown) [8A, 8-(Ac)APT-cAMP] | – | – |
| – | 6600 | 2.2 | – | – | 34200 | 2.1 | 1.5 | 96.7 | 34300 | CC(=O)NCC(=O)NCCSc1nc2c(N)ncnc2n1C1OC2COP(=O)(O)OC2C1O (stereo not shown) [10A, 8-(Ac)AGET-cAMP] | – | – |
